According to patent publication US8158587B2, “Compound having histone deacetylase-inhibiting activity, and pharmaceutical composition comprising the compound as an active ingredient” (Kyushu Institute of Technology, priority 2006, dated 2012):

Tests used:
Experiment in all cases: Human cancer cell line panel, proliferation (sulforhodamine B)
Format in all cases: cell-based
[1] = system: ovarian cancer cell line SK-OV-3; settings: SK-OV-3, 2 days of cultivation; read-out: 50% inhibitory concentration, proliferation
[2] = system: brain tumor cell line SF-295; settings: SF-295, 2 days of cultivation; read-out: 50% inhibitory concentration, proliferation
[3] = system: brain tumor cell line SF-268; settings: SF-268, 2 days of cultivation; read-out: 50% inhibitory concentration, proliferation

IC50 [1]: ≤ 100 nM | IC50 [2]: ≤ 100 nM | IC50 [3]: ≤ 100 nM
SMILES: CC(=O)CSCCCCC[C@@H]1NC(=O)[C@H]2CCCN2C(=O)[C@H](Cc2ccccc2)NC(=O)C(C)(C)NC1=O [Ky-72, cyclo(-L-Am7(acetonyl)-Aib-L-Phe-D-Pro-)]
